This passage reports GI50 and TGI results from PubChem BioAssay (NCI).

Test systems include A549 NSCLC; ACHN renal; DU-145 prostate; HCC-2998 colon; HCT-15 colon; MCF7 breast; MOLT-4 leukemia; OVCAR-5 ovarian; SK-MEL-2 melanoma; SK-MEL-28 melanoma.
What all share (experiment): NCI-60 cell line screen, 48 h

Several values for one entry are separate records, joined by “and”; a condition that tells them apart may be missing. Identical values can stand only once.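 All cell lines were grown in 96-well plates and treated with compound for 48 hours. Here, GI50 denotes the concentration required for 50% inhibition of growth. TGI: total growth inhibition.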 Some results are limits rather than exact numbers.

Take `O=c1nc(Nc2cccc(Cl)c2)oc2cc(Cl)oc(=O)c12`: the GI50 in the experiment on A549 NSCLC is 19.7 µM; in the experiment on ACHN renal, 5 µM; in the experiment on DU-145 prostate, 10.4 µM; with HCC-2998 colon, 13.4 µM; in the experiment on HCT-15 colon it was 5.82 µM; with MCF7 breast, 4.33 µM. The GI50 in the experiment on MOLT-4 leukemia is 3.24 µM; with OVCAR-5 ovarian it was 18.5 µM; with SK-MEL-2 melanoma it was 2.02 µM; in the experiment on SK-MEL-28 melanoma, 8.76 µM. Besides, the TGI was determined as 60.6 µM with A549 NSCLC; 24.8 µM with ACHN renal; 25.3 µM in the experiment with DU-145 prostate; 27.5 µM in the experiment on HCC-2998 colon; 28.3 µM in the experiment on HCT-15 colon; 20.9 µM in the experiment with MCF7 breast. Also, the TGI with MOLT-4 leukemia turned out to be 16.3 µM; with OVCAR-5 ovarian, 46.2 µM; in the experiment on SK-MEL-2 melanoma it was 4.61 µM; in the experiment with SK-MEL-28 melanoma, 22.7 µM.
Consider `CN(C)N1C(=O)c2ccccc2NC1c1ccccc1` (centres undefined), for which the TGI in the experiment on A549 NSCLC, in the experiment with ACHN renal, in the experiment with DU-145 prostate, in the experiment on HCC-2998 colon, in the experiment with HCT-15 colon and in the experiment with MCF7 breast was greater than 100 µM each time. Further, the TGI in the experiment with MOLT-4 leukemia, in the experiment with OVCAR-5 ovarian, in the experiment with SK-MEL-2 melanoma and in the experiment on SK-MEL-28 melanoma was greater than 100 µM in each case.
With `Nc1ccc2c(c1)NCCN2`, the TGI with A549 NSCLC, in the experiment with ACHN renal, in the experiment with DU-145 prostate, in the experiment on HCC-2998 colon, in the experiment on HCT-15 colon and in the experiment with MCF7 breast was greater than 100 µM in each case. The TGI in the experiment on MOLT-4 leukemia is 89.7 µM; in the experiment on OVCAR-5 ovarian, greater than 100 µM; in the experiment on SK-MEL-2 melanoma, greater than 100 µM; with SK-MEL-28 melanoma it was greater than 100 µM.
`CCOC(=O)C(Cc1c[nH]c2ccc(N(CCCl)CCCl)cc12)(NC(C)=O)C(=O)OCC`: the GI50 in the experiment on A549 NSCLC is 1.8 µM and 1.04 µM; with ACHN renal, 0.917 µM and 0.342 µM; with DU-145 prostate, 14.6 µM and 7.62 µM; in the experiment on HCC-2998 colon it was 12.1 µM and 13.4 µM; in the experiment on HCT-15 colon it was 14.6 µM and 16.1 µM; in the experiment on MCF7 breast, 2.42 µM and 3.11 µM. Also, the GI50 was 2.88 µM and 0.957 µM in the experiment on MOLT-4 leukemia; 30.8 µM and 25.2 µM in the experiment with OVCAR-5 ovarian; 5.04 µM and 27.6 µM in the experiment on SK-MEL-2 melanoma; 31.6 µM and 23 µM with SK-MEL-28 melanoma. The TGI with A549 NSCLC is 25.1 µM and 63.9 µM; in the experiment on ACHN renal, 17.3 µM and 8.2 µM; in the experiment on DU-145 prostate it was 70 µM and 58.1 µM; in the experiment on HCC-2998 colon it was 30.2 µM and 36.4 µM; in the experiment with HCT-15 colon it was 39.9 µM and 53.4 µM; in the experiment on MCF7 breast it was 26.8 µM and 96.6 µM. The TGI is 13 µM and 26.2 µM with MOLT-4 leukemia; 67 µM and 75.7 µM in the experiment with OVCAR-5 ovarian; 19.3 µM and 65.9 µM in the experiment with SK-MEL-2 melanoma; 238 µM in the experiment on SK-MEL-28 melanoma.
For the compound `C1CSCCCSCCSCCCSC1`, the TGI in the experiment with A549 NSCLC, with ACHN renal, with DU-145 prostate, in the experiment on HCC-2998 colon, in the experiment on HCT-15 colon and with MCF7 breast was greater than 100 µM in each case. For the same compound, the TGI with MOLT-4 leukemia, in the experiment on OVCAR-5 ovarian, with SK-MEL-2 melanoma and with SK-MEL-28 melanoma was greater than 100 µM each time.
Regarding `C#CC1(O)C(COP(=O)(O)OC2CC(n3cc(F)c(=O)[nH]c3=O)OC2CO)OC(n2ccc(N)nc2=O)C1O` (centres undefined), the GI50 is less than 0.01 µM with A549 NSCLC; less than 0.01 µM in the experiment on ACHN renal; less than 0.011 µM in the experiment with DU-145 prostate; less than 0.01 µM in the experiment with HCC-2998 colon; less than 0.01 µM with HCT-15 colon; less than 0.01 µM with MCF7 breast. For the same compound, the GI50 was less than 0.01 µM with MOLT-4 leukemia, 0.154 µM in the experiment with OVCAR-5 ovarian, 0.0735 µM with SK-MEL-2 melanoma and 0.0474 µM in the experiment with SK-MEL-28 melanoma. The TGI is greater than 54.4 µM in the experiment on A549 NSCLC; 3.62 µM with DU-145 prostate; 0.431 µM in the experiment with HCC-2998 colon; greater than 38.9 µM in the experiment on HCT-15 colon; 0.137 µM in the experiment on MCF7 breast; greater than 39 µM with MOLT-4 leukemia. In addition, the TGI with OVCAR-5 ovarian is greater than 33.5 µM; in the experiment with SK-MEL-2 melanoma, 1.66 µM; with SK-MEL-28 melanoma, 1.72 µM.
With `CC/C=C\C[C@H](O)C/C=C1/C(=O)C=C[C@@H]1C/C=C\CCCC(=O)N(C)C`, the GI50 is 3.01 µM in the experiment on A549 NSCLC; 1.45 µM in the experiment with ACHN renal; 3.27 µM in the experiment with DU-145 prostate; 1.77 µM in the experiment with HCC-2998 colon; 1.29 µM in the experiment on HCT-15 colon; 0.368 µM in the experiment with MCF7 breast. The GI50 was 2.78 µM in the experiment with MOLT-4 leukemia, 2.46 µM with OVCAR-5 ovarian, 2.5 µM in the experiment with SK-MEL-2 melanoma and 1.96 µM with SK-MEL-28 melanoma. The TGI with A549 NSCLC came out at 11.3 µM; with ACHN renal, 3.43 µM; in the experiment on DU-145 prostate, 15.4 µM; in the experiment on HCC-2998 colon, 3.2 µM; with HCT-15 colon, 5.87 µM; in the experiment on MCF7 breast, 12.2 µM. Also, the TGI in the experiment on MOLT-4 leukemia amounted to 12.8 µM; with OVCAR-5 ovarian it was 5.51 µM; in the experiment on SK-MEL-2 melanoma, 7.13 µM; in the experiment with SK-MEL-28 melanoma, 4.31 µM.
